Values after ≈ are worked out from the molar mass of the structure shown.
Key:
[1] = Solubility in simulated fluids (kinetic solubility, 24 hours); type: physicochemical; conditions: thermodynamic from solid, 24 hour timepoint, room temperature
Description: A known quantity of the Examples and control compounds were weighed into a suitable vessel (whatman miniuniprep vials) and a known volume of the required media was added (e.g. Simulated Gastric Fluid pH 1.2 [SGF], Simulated Fasted State Intestinal Fluid pH 6.5 [FaSSIF] or Phosphate Buffered Saline pH 7.4 [PBS]). The samples were subjected to vortex mixing for 2 minutes followed by agitation on a shaker for 24 hours at room temperature at 800 rpm.

[2] = in vitro; type: in vitro ADME; conditions: rat intestinal microsomes, NADPH, 37° C.
Description: 5 μL of a 10 mM stock solution of the Examples were dissolved in 495 μL acetonitrile to afford 500 μL working solution.
The appropriate amount of β-Nicotinamide adenine dinucleotide phosphate reduced form, tetrasodium salt; NADPH-4Na (NADPH) powder was weighed and diluted into a 10 mM MgCl2 solution (working solution concentration: 10 unit/mL; final concentration in reaction system: 1 unit/mL).
The appropriate concentrations of rat intestinal microsome (Xenotech, cat. No R1000.1) working solutions were prepared in 100 mM potassium phosphate buffer.
Cold (4° C.) acetonitrile (ACN) containing 200 ng/mL tolbutamide and 200 ng/mL labetalol as internal standards (IS).
Incubation plates were pre-incubated for 10 minutes at 37° C. with constant shaking. 54 μL was transferred from Incubation plates into a blank plate and then 6 μL NADPH cofactor and 180 μL quenching solution was added to the Incubation plates. 5 μL Example working solution (100 μM) was also added to the Incubation plates and mixed thoroughly.
The T60 Incubation plate was mixed thoroughly and for the 0-min timepoint, 54 μL was transferred into a Quenching plate (containing 180 μL quenching solution and 6 μL NADPH cofactor). 44 μL NADPH cofactor was then added to the T60 Incubation plate and incubated at 37° C. for 60 min while shaking. At 5, 15, 30, 45, and 60 min, 60 μL samples were transferred from T60 Incubation plate into a Quenching plate (containing 180 μl quenching solution). For the NCF60 Incubation plate, 50 μL of buffer was added and mixed thoroughly before incubation at 37° C. for 60 min while shaking, at the 60-min time point 60 μL was transferred to the Quenching plate (containing 180 μl quenching solution). All sampling plates were shaken for 10 min, then centrifuged at 4000 rpm for 20 minutes at 4° C. 80 μL supernatant was transferred into 240 μL HPLC water, and mixed for 10 min.

[3] = Stability in aqueous media (FaSSIF, SGF, PBS); type: physicochemical; conditions: for FaSSIF (pH 6.5) % remaining 1 h / FaSSIF (pH 6.5) % remaining 6 h / FaSSIF (pH 6.5) % remaining 24 h: FaSSIF pH 6.5, 37° C.; for PBS (pH 7.4) % remaining 1 h / PBS (pH 7.4) % remaining 6 h / PBS (pH 7.4) % remaining 24 h: PBS pH 7.4, 37° C.; for SGF (pH 1.2) % remaining 1 h / SGF (pH 1.2) % remaining 6 h / SGF (pH 1.2) % remaining 24 h: SGF pH 1.2, 37° C.
Description: 10 μL of a 10 mM stock solution of the Examples were dissolved in 490 μL DMSO to afford […] working solution SGF (pH 1.2):
Dissolve 0.04 g NaCl and 0.064 g pepsin in 0.14 mL HCl and add sufficient water to 20 mL volume. The pH of the test solution was 1.20±0.05.
0.056% (w/v) lecithin, 0.161% (w/v) sodium taurocholate, 0.39% (w/v) monobasic potassium phosphate, 0.77% (w/v) potassium chloride, deionized H2O. The pH of the test solution was 6.5±0.05.
30 mL of 10×PBS (pH7.4) was added into a 50 mL flask and diluted with water. The solution was mixed well and adjusted to pH 7.4 with 1 N HCl.
2 μL of the 200 μL working solution of the Examples was added into 96-deep-well plates for TO, T60, T120, T360 and T1440 timepoints. Duplicates were prepared.
Stability studies were commenced by the addition of 198 μL of the required media (e.g. Simulated Gastric Fluid pH 1.2 [SGF], Simulated Fasted State Intestinal Fluid pH 6.5 [FaSSIF]) and Phosphate Buffered Saline pH 7.4 [PBS]) to each well except TO. The samples were incubated at 37° C. at 600 rpm for the appointed time. The samples at the corresponding timepoint were removed and immediately mixed with 400 μL of cold acetonitrile containing 200 ng/mL tolbutamide and labetalol (internal standard). The samples were centrifuged at 4000 rpm at 4° C. for 20 minutes. 60 μL of the supernatant was removed and mixed with 180 μL purified water and thoroughly mixed and analysed by LCMS (Shimadzu LC 30-AD, ACQUITY UPLC BEH Phenyl 1.7 um 2.1*50 mm Part No. 186002884, with mobile phase A: 0.1% formic acid in water, mobile phase B: 0.1% formic acid in acetonitrile). Formation of parent was also monitored as a metabolite.
Samples were analysed by Mass Spectrometry QTRAP 6500+.

[4] = type: in vitro ADME; conditions: rat plasma, 37° C.
Description: 5 μL of a 10 mM stock solution of the Examples were dissolved in 495 μL DMSO to afford 500 μL working solution Assay procedure:
98 μL plasma was added to each well of a 96-well reaction plate, using one plate per timepoint (Blank, TO, T10, T30, T60, and T120). 2 μL of working solution was added to each well of the reaction plates except Blank. Each plate was incubated at 37° C. for the indicated timepoint (0, 10, 30, 60, 120 minutes). At the end of incubation, 400 μL of stop solution (200 ng/mL tolbutamide and 200 ng/mL labetalol in 0.1% FA in ACN) was added to precipitate protein. The plates were then sealed and shaken for 20 minutes before centrifugation at 4000 rpm for 20 minutes. […] Formation of parent was also monitored as a metabolite.

[5] = simulated gastric fluid, SGF (pH 1.2)

SMILES	solubility kinetic at 24 h [1, 5]	solubility kinetic at 24 h ([1]; FaSSIF (pH 6.5))	CIint(mic) [2]	half-life at 1 µM [2]	FaSSIF (pH 6.5) % remaining 1 h [3]	FaSSIF (pH 6.5) % remaining 6 h [3]	FaSSIF (pH 6.5) % remaining 24 h [3]	PBS (pH 7.4) % remaining 1 h [3]	PBS (pH 7.4) % remaining 6 h [3]	PBS (pH 7.4) % remaining 24 h [3]	SGF (pH 1.2) % remaining 1 h [3]	SGF (pH 1.2) % remaining 6 h [3]	SGF (pH 1.2) % remaining 24 h [3]	% Example remaining 0 min [4]	Example concentration (nM) 0 min [4]	% Example remaining 10 min [4]	Example concentration (nM) 10 min [4]
CC(C)(C)OC(=O)c1ccc2c(c1)nc(OCCOCCCCNCc1cc(F)c(OC(F)(F)F)c(F)c1)c1ccncc12 [Example 9, tert-butyl 5-(2-(4-((3,5-difluoro-4-(trifluoromethoxy)benzyl)amino)butoxy)ethoxy)benzo[c][2,6]naphthyridine-8-carboxylate]	16.1 µg/mL (≈ 25.9 µM)	88.3 µg/mL (≈ 142 µM)	78.9 µL/min/mg	29.3 min	92.1%	98.3%	96.1%	80.9%	27.9%	10.0%	102.1%	57.9%	19.6%				
CC(C)OC(=O)OCOC(=O)c1ccc2c(c1)nc(OCCOCCCCNCc1cc(F)c(OC(F)(F)F)c(F)c1)c1ccncc12 [Example 14, ((isopropoxycarbonyl)oxy)methyl 5-(2-(4-((3,5-difluoro-4-(trifluoromethoxy)benzyl)amino)butoxy)ethoxy)benzo[c][2,6]naphthyridine-8-carboxylate]	15 µg/mL (≈ 22 µM)	100 µg/mL (≈ 147 µM)	1604.8 µL/min/mg	1.4 min	98.2%	93.6%	102.8%	91.7%	34.3%	4.4%	105.1%	63.8%	23.2%				
CCOC(=O)c1ccc2c(c1)nc(OCCOCCCCNCc1cc(F)c(OC(F)(F)F)c(F)c1)c1ccncc12 [Example 8, ethyl 5-(2-(4-((3,5-difluoro-4-(trifluoromethoxy)benzyl)amino)butoxy)ethoxy)benzo[c][2,6]naphthyridine-8-carboxylate]	17.8 µg/mL (≈ 30 µM)	82.8 µg/mL (≈ 139 µM)	37.6 µL/min/mg	61.4 min	98.5%	102.6%	100.4%	63.2%	25.3%	7.6%	108.2%	63.8%	23.3%	100.0%	1687.0 nM	0.2%	3.1 nM
CC(=O)OCOC(=O)c1ccc2c(c1)nc(OCCOCCCCNCc1cc(F)c(OC(F)(F)F)c(F)c1)c1ccncc12 [Example 10, acetoxymethyl 5-(2-(4-((3,5-difluoro-4-(trifluoromethoxy)benzyl)amino)butoxy)ethoxy)benzo[c][2,6]naphthyridine-8-carboxylate]	20.9 µg/mL (≈ 32.8 µM)	91.3 µg/mL (≈ 143 µM)	61.8 µL/min/mg	37.4 min	101.7%	97.1%	104.4%	78.8%	7.1%	1.1%	101.5%	55.9%	10.1%	100.0%	2023.5 nM	0.1%	2.1 nM
